Experimental data taken from PubChem BioAssay (NCI).
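Five concentrations, 48 hours, 96-well plates. TGI denotes the concentration required for complete inhibition of growth.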 Where a SMILES comes first, the peptide text is derived from it. [ ]: non-standard residue; d: D form. β3hI = CC[CH](C)[CH](N)CC(=O)O

Assays:
Test in all cases: NCI anticancer screen, dose series, 48 h
A549 NSCLC = test system: A549 NSCLC
CCRF-CEM leukemia = test system: CCRF-CEM leukemia
HCC-2998 colon = test system: HCC-2998 colon
HOP-92 NSCLC = test system: HOP-92 NSCLC
HS 578T breast = test system: HS 578T breast
IGROV1 ovarian = test system: IGROV1 ovarian
K-562 leukemia = test system: K-562 leukemia
MDA-MB-231 breast = test system: MDA-MB-231 breast
NCI-H522 lung = test system: NCI-H522 lung
OVCAR-8 ovarian = test system: OVCAR-8 ovarian
PC-3 prostate = test system: PC-3 prostate
RXF 393 renal = test system: RXF 393 renal
SW-620 colon = test system: SW-620 colon
T-47D breast = test system: T-47D breast
UACC-257 melanoma = test system: UACC-257 melanoma
A498 renal = test system: A498 renal

SMILES	TGI (A549 NSCLC)	TGI (CCRF-CEM leukemia)	TGI (HCC-2998 colon)	TGI (HOP-92 NSCLC)	TGI (HS 578T breast)	TGI (IGROV1 ovarian)	TGI (K-562 leukemia)	TGI (MDA-MB-231 breast)	TGI (NCI-H522 lung)	TGI (OVCAR-8 ovarian)	TGI (PC-3 prostate)	TGI (RXF 393 renal)	TGI (SW-620 colon)	TGI (T-47D breast)	TGI (UACC-257 melanoma)	TGI (A498 renal)
CC1(C)CN=C(Nc2cccc(C(F)(F)F)c2)S1	> 100 µM	> 100 µM	> 100 µM	> 100 µM	> 100 µM	> 100 µM	> 100 µM	16.3 µM	> 100 µM	> 100 µM	> 100 µM	> 100 µM	> 100 µM	> 100 µM	> 100 µM	–
ClC1=C(Cc2ccccc2)Cc2ccc3c(c21)CCC3	98.2 µM	90.1 µM	40.1 µM	> 100 µM	84.3 µM	> 100 µM	76 µM	57.3 µM	39.5 µM	> 100 µM	> 100 µM	45 µM	> 100 µM	50.4 µM	53.8 µM	–
CCC(C)C(CC(=O)N1CCCC1C(=O)NC(C(=O)NC(C(=O)NCC(=O)NC(CC(N)=O)C(=O)NC(C(=O)NC(C(=O)NC(CCCCN)C(N)=O)C(C)CC)C(C)CC)C(C)C)C(C)CC)NC(=O)C(N)C(C)CC (stereo not drawn) (H-I[β3hI]PIVGNIIK-NH2; configuration not given here)	> 50 µM	> 50 µM	–	> 50 µM	> 50 µM	> 50 µM	–	> 50 µM	> 50 µM	> 50 µM	> 50 µM	–	> 50 µM	> 50 µM	> 50 µM	> 50 µM
Cn1c2ccccc2c(=NNc2ccccc2C(=O)O)c2ccccc21	77.2 µM	72 µM	46.8 µM	67.6 µM	83.1 µM	94.3 µM	28.5 µM	59.1 µM	33.3 µM	66.2 µM	42.3 µM	33.3 µM	84.8 µM	88.3 µM	51.5 µM	–
N#CC(c1cc2c(cc1Br)OCO2)N1CCOCC1 (centres undefined)	> 100 µM	> 100 µM	> 100 µM	> 100 µM	83.8 µM	> 100 µM	57.1 µM	> 100 µM	> 100 µM	> 100 µM	71.2 µM	51.6 µM	> 100 µM	> 100 µM	> 100 µM	–
Oc1c(C2=N[C@H]3CCCC[C@@H]3N2)ccc2ccccc12	> 21.8 µM	> 100 µM	> 100 µM	> 100 µM	> 100 µM	> 100 µM	> 100 µM	> 100 µM	> 100 µM	> 100 µM	> 100 µM	–	> 100 µM	> 100 µM	> 100 µM	> 100 µM
CC(NC(=O)OC(C)(C)C)C(=O)C(N)=O (centres undefined)	> 100 µM	> 100 µM	> 100 µM	> 100 µM	> 100 µM	–	> 100 µM	> 100 µM	–	> 100 µM	> 100 µM	–	> 100 µM	> 100 µM	–	> 100 µM
O=[N+]([O-])c1cc(-[n+]2cc([O-])on2)ccc1F	33.4 µM	38.6 µM	28.6 µM	32.6 µM	61.5 µM	28.3 µM	> 100 µM	38 µM	22.2 µM	30.9 µM	35.1 µM	27.2 µM	38.3 µM	15.5 µM	31.6 µM	–
COc1cccc(/C=C2\CCCCCC2=O)c1	> 100 µM	–	> 100 µM	> 100 µM	> 100 µM	> 100 µM	> 100 µM	> 100 µM	> 100 µM	–	> 100 µM	–	> 100 µM	> 100 µM	> 100 µM	> 100 µM
O=C(c1cccnc1)N1N=C(c2ccc(Cl)cc2)CC1(O)c1cc(F)c(Cl)cc1Cl (centres undefined)	> 100 µM	> 100 µM	–	59.8 µM	> 100 µM	82.1 µM	> 100 µM	38.9 µM	92.1 µM	> 100 µM	43.4 µM	26.7 µM	> 100 µM	20.7 µM	63.7 µM	–
COc1ccc2c(c1)N=C1CSC(c3cc([N+](=O)[O-])ccc3Cl)N1C2 (centres undefined)	> 100 µM	–	33 µM	71.5 µM	> 100 µM	> 100 µM	> 100 µM	50 µM	57 µM	> 100 µM	59.3 µM	82 µM	> 100 µM	> 100 µM	37.9 µM	–
COC(=O)C(Cc1ccccc1)OC(=O)C(N)CC(=O)O (centres undefined)	> 100 µM	–	> 100 µM	> 100 µM	> 100 µM	> 100 µM	> 100 µM	> 100 µM	> 100 µM	> 100 µM	> 100 µM	> 100 µM	> 100 µM	> 100 µM	> 100 µM	–
CN(/N=C/C=N/N(C)C1=NCCCCN1)C1=NCCCCN1	> 100 µM	> 100 µM	> 100 µM	–	> 100 µM	> 100 µM	> 100 µM	> 100 µM	> 100 µM	> 100 µM	> 100 µM	> 100 µM	> 100 µM	> 100 µM	> 100 µM	–
